As usually defined, the IC50 is the concentration that gives 50% inhibition. Broadly, the GI50 is the concentration giving 50% growth inhibition. Low values mean greater sensitivity of the cells, high ones lower sensitivity of the cells.

In assay [1] the target is T1, Alpha-ketoglutarate-dependent dioxygenase FTO (Homo sapiens, UniProt Q9C0B1).
Assay [2] deals with YTH domain-containing protein 1 (Homo sapiens, UniProt Q96MU7).
For another assay, the system named is Huh-7. In words: cells. Particulars: Homo sapiens.
In assay [3] the target is T2, METTL3/METTL14 (Homo sapiens, UniProt Q86U44).
In a further assay the test system is OCI-AML2. Kind of assay: cells. Particulars: Homo sapiens.
The target of assay [4] is T1, Alpha-ketoglutarate-dependent dioxygenase FTO. The source holds these as a separate data set.
Assay [5] deals with T3, N6-adenosine-methyltransferase catalytic subunit (Homo sapiens, UniProt Q86U44).
Assay [6] addresses T3, N6-adenosine-methyltransferase catalytic subunit. This is another data set of the same source.
The target is the same in assay [7]. The source holds these as a separate data set.
Assay [8] shares this target. This is another data set of the same source.
The target in a further assay is RNA demethylase ALKBH5 (Homo sapiens, UniProt Q6P6C2).
A further assay can be described thus: cells. To be noted: Homo sapiens, AML1.
Assay [9] deals with T2, METTL3/METTL14. This is another data set of the same source.
Assay [10] addresses N(6)-adenosine-methyltransferase catalytic subunit METTL3 (Mus musculus, UniProt Q8C3P7).
Assay [11] addresses T2, METTL3/METTL14. This is another data set of the same source.
Another assay deals with ECa-109 cell line. Kind of assay: cells. Particulars: Homo sapiens, ECa-109, 72 h.
The target in assay [12] is T1, Alpha-ketoglutarate-dependent dioxygenase FTO. The source holds these as a separate data set.
Another assay has as its system HeLa. Kind of assay: cells. To be noted: Homo sapiens, 24 h.

Structures can show the parent of a compound that is named as a salt.

On to `COc1ncc(-c2ccc3sc(N)nc3c2)cn1`, for which the 50% inhibitory concentration (IC50) in [1] came to 3400 nM.

In the case of `O=c1c2ccccc2[se]n1-c1ccccc1` [EBSELEN], half-maximal inhibition in [2] (IC50) was put at 1600 nM.

Molecule `COc1cc(-c2cn(Cc3cn4cc(CNCC5CCC5)ccc4n3)nn2)c2cn[nH]c2c1` showed a concentration for 50% growth inhibition (GI50) in the assay on Huh-7 of 160 nM. Besides, the IC50 on METTL3/METTL14 [3] was under 5 nM.

Molecule `Cc1c(-c2ccc(-c3ccccc3F)cc2)nc2ccc(F)cc2c1C(=O)O` [BREQUINAR] gave an IC50 in the assay with OCI-AML2 of 200 nM.

Molecule `N=C(N)c1ccc2cc(OC(=O)c3ccc(N=C(N)N)cc3)ccc2c1` [NAFAMOSTAT MESYLATE] displayed a half-maximal inhibitory concentration (IC50) in assay [4] of 13800 nM.

As to `O=C(O)c1ccccc1OCCc1cn(-c2ccc(-c3c(Cl)cccc3Cl)cc2)c2ccc(-c3ccc(F)cc3)cc12`, the IC50 in assay [5] stood at 4000 nM; in [6], 4000 nM; in [7] it was 2810 nM. For the same molecule, the GI50 in the assay with Huh-7 came out at 14600 nM.

`Cn1ccc(-c2cn([C@@H]3O[C@H](COc4ccc5ccc(N6CCC6)nc5c4)[C@@H](O)[C@@H]3F)c3ncnc(N)c23)n1`: the IC50 was under 1000 nM in assay [5], under 10 nM in assay [8] and under 10 nM in [7]. Also, in the assay on Huh-7, the GI50 is under 1000 nM.

On to `CCCc1c(C)nc2c3ccccc3oc(=S)n12`, for which the IC50 at RNA demethylase ALKBH5 was determined as 10000 nM.

The molecule `Cc1noc(C)c1-c1cc(Cl)c(Nc2ccccc2C(=O)O)c(Cl)c1` had a 50% growth inhibitory concentration (GI50) in “cells” of 23000 nM.

`Nc1ncnc2c1ncn2[C@@H]1O[C@H](C(=O)NCCCNC(=O)c2ccccn2)[C@@H](O)[C@H]1O` gave an IC50 in [4] of 1500 nM.

For `CCc1cc(N(C)CCOC)c2ccc(CCc3cncc(-n4cc(-c5ccn(C)n5)c5c(N)ncnc54)c3)cc2n1`, the concentration for half-maximal inhibition (IC50) is under 1000 nM in assay [5], under 10 nM in assay [8] and under 10 nM in [7]. The molecule also had a GI50 in the assay with Huh-7 of under 1000 nM.

`Nc1ncnc2c1ncn2[C@@H]1O[C@H](CSCC[C@H](N)C(=O)O)[C@@H](O)[C@H]1O` [S-ADENOSYLHOMOCYSTEINE] gave an IC50 against METTL3/METTL14 [9] of 520 nM.

The molecule `O=C(NCc1cn2cc(CNCC3CCCCC3)ccc2n1)c1cc(=O)n2ccccc2n1` registered a 50% growth inhibitory concentration (GI50) with Huh-7 of 600 nM. The molecule also gave an IC50 in [10] of 2810 nM.

The molecule `O=C(O)[C@H]1O[C@@H](Oc2cc3oc(-c4ccc(O)cc4)cc(=O)c3c(O)c2O)[C@H](O)[C@@H](O)[C@@H]1O` [SCUTELLARIN] had an IC50 against METTL3/METTL14 [3] of 19900 nM.

In assay [1], `O=C(O)CC[C@@H](O)C(=O)O` came in with an IC50 of 133000 nM.

For `C(=N\NC1=NCCN1)/c1c2ccccc2c(/C=N/NC2=NCCN2)c2ccccc12` [BISANTRENE], half-maximal inhibition in the assay with OCI-AML2 (IC50) was put at 100 nM.

In the assay on Huh-7, `Clc1cc(-c2cn(Cc3cn4cc(CNCC5CCC5)ccc4n3)nn2)c2cn[nH]c2c1` registered a GI50 of 210 nM. Further, the IC50 against METTL3/METTL14 [11] was 25 nM; on METTL3/METTL14 [3], under 5 nM.

`Cc1noc(C)c1-c1cc(Cl)c(Nc2ccccc2C(=O)NO)c(Cl)c1` came in with a GI50 in the assay “cells” of 800 nM.

The molecule `COc1c(C)cnc(Cn2cc(CNC(=O)c3c(F)c(F)c(F)c(F)c3F)nn2)c1C` showed an IC50 in the assay with ECa-109 cell line of 830 nM.

As for `CC(=O)Oc1cccc2c1C(=O)c1c(OC(C)=O)cc(C(=O)O)cc1C2=O` [DIACEREIN], in assay [4], the half-inhibitory concentration (IC50) turned out to be 1500 nM.

In assay [8], `CCOC(=O)c1ccccc1Nc1c(Cl)ccc(C)c1Cl` yielded an IC50 of 7000 nM.

`O=C(O)c1ccccc1-c1c2cc(Cl)c(=O)cc-2oc2cc(O)c(Cl)cc12`: the IC50 in assay [12] came to 640 nM.

The molecule `CC1(C)CCN(Cc2ccc3nc(Cn4cc(-c5cc(Br)cc6[nH]ncc56)nn4)cn3c2)CC1` registered a half-maximal inhibitory concentration (IC50) on METTL3/METTL14 [3] of 8 nM.

Regarding `Nc1ncnc2c1ncn2[C@@H]1O[C@H](C[C@@H](N)CC[C@H](N)C(=O)O)[C@@H](O)[C@H]1O` [SINEFUNGIN], half-maximal inhibition on METTL3/METTL14 [9] (IC50) was put at 1300 nM. For the same molecule, it took 24800 nM to inhibit growth with Huh-7 by half (GI50).

Molecule `Cc1ccc(Cl)c(Nc2ccccc2C(=O)O)c1Cl` [MECLOFENAMIC ACID] registered an IC50 in assay [8] of 8000 nM.

For the molecule `CCS(=O)(=O)Nc1oc(-c2ccc(Cl)cc2)c(O)c1O`, inhibition in the assay with HeLa was half-maximal at 8700 nM (IC50).

For the origin of these results see ChEMBL document CHEMBL5584234, “Small molecules that regulate the N6-methyladenosine RNA modification as potential anti-cancer agents” (Eur J Med Chem, 2024).
